Data published in ChEMBL document CHEMBL4041528, “Natural NO inhibitors from the leaves of Callicarpa kwangtungensis: Structures, activities, and interactions with iNOS” (Bioorg Med Chem Lett, 2017).

Assays:
BV-2 [1] = experiment: Cytotoxicity against mouse BV2 cells NO inhibitory IC50 by MTT assay; format: cell-based
BV-2 [2] = experiment: Inhibition of LPS-induced NO production in mouse BV2 cells after 20 hrs by Griess assay; format: functional, cell-based; conditions: BV-2, 20 h

Compound	IC50 (BV-2 [2])	Activity (BV-2 [1])
CC(C)[C@]12CC[C@]3(OO1)C(=CC[C@H]1[C@](C)(C(=O)O)CCC[C@@]13C)[C@@H]2O	26.7 µM	Non-Toxic
CC(C)[C@@]12C=C3CC[C@H]4[C@](C)(C(=O)O)CCC[C@]4(C)[C@]3(CC1)OO2	52.4 µM	Non-Toxic
CO[C@@H]1C[C@H]2[C@](C)(C(=O)O)CCC[C@]2(C)[C@]23CC[C@](C(C)C)(C=C12)OO3	23.7 µM	Non-Toxic
CC(C)[C@]12CC[C@@]34O[C@@]3(CC[C@H]3[C@](C)(C(=O)O)CCC[C@@]34C)[C@H]1O2	> 81 µM	Non-Toxic
CC(C)c1ccc2c(c1)[C@@H](O)C[C@H]1[C@](C)(C(=O)O)CCC[C@]21C	17.9 µM	Non-Toxic
CC(C)[C@@]12C=C3[C@H](O)C[C@H]4[C@](C)(C(=O)O)CCC[C@]4(C)[C@]3(CC1)OO2	> 81 µM	Non-Toxic
C=C(C)c1ccc2c(c1)CC[C@H]1[C@](C)(CO)CCC[C@]21C	15.3 µM	Non-Toxic
CC(C)[C@]12C=C3CC[C@H]4[C@](C)(C(=O)O)CCC[C@]4(C)[C@@]3(CC1)OO2	34.7 µM	Non-Toxic

Further lines, with some results ahead:

IC50 (BV-2 [2])	Compound	Activity (BV-2 [1])
13.6 µM	C=C1CC[C@H](O)/C(C)=C\C[C@@H]2[C@@H]1CC2(C)C	Non-Toxic
62.2 µM	CC1(C)C[C@H](O)[C@]23CC[C@@H](O)[C@](C)(CC[C@@H]12)C3	Non-Toxic
25.5 µM	C=C(C)c1ccc2c(c1)CC[C@H]1[C@](C)(C(=O)O)CCC[C@]1(C)O2	Non-Toxic
42.6 µM	C=C1CC[C@H](O)[C@@]2(C)O[C@H]2C[C@@H]2[C@@H]1CC2(C)C	Non-Toxic
> 81 µM	CC1(C)C[C@@H]2C(=O)CC[C@H]3O[C@]3(C)CC[C@H]21 [KOBUSONE]	Non-Toxic
